Reference: patent publication US12653892B2, “Composition and method for new therapeutic agents including guanidinium-presenting dendrimers and branched structures” (priority 2020, dated 2026)
In brackets after ≈: the same amount, converted by molar mass. Read-outs that look alike come from different tables or passages of the source.

Experiments:
S. aureus ATCC 29213 [1] = assay: MIC by broth microdilution, S. aureus ATCC 29213; type: cell-based; settings: S. aureus (ATCC 29213); for MIC, Antibiotic +NH2-triguan-6C / MIC, Antibiotic +NO2-triamine-2C / MIC, Antibiotic +NO2-triamine-6C: non-covalent mixture; for MIC: Staphylococcus aureus, ATCC29213, 20 h, read-out: MIC, Antibiotic Alone
Protocol: (§1) Methods—Determination of MICs: MICs for S. aureus, E. faecium, E. coli, P aeruginosa, A. baumannii, K. pneumoniae were determined using broth microdilution in accordance with CLSI methods (Wiegand, I.; Hilpert, K.; Hancock, R. E. W. Agar and Broth Dilution Methods to Determine the Minimal Inhibitory Concentration (MIC) of Antimicrobial Substances. Nat. Protoc. 2008, 3, 163-175). One day prior to each MIC experiment, bacterial strains were streaked for single colonies on TSA plates from frozen glycerol stocks stored at −80° C. Three to five colonies from each plate were harvested with a disposable inoculating loop and resuspended in 500 μL of PBS to create a bacterial suspension. Alternatively, a single colony of the appropriate bacterial strain was added to 4 mL TSB for overnight growth at 37° C. with 200 rpm shaking to create a stationary phase bacterial suspension. The suspension was diluted in PBS to an OD600 of 0.1 (˜[…] CFU/ml), and the OD 0.1 suspension was diluted 1:100 in Mueller Hinton broth (MHB, Difco 257530) just prior to inoculating the 96-well polypropylene treatment plate (Costar 3879). A 50 μL portion of inoculum was added to a treatment plate containing 2-fold serial dilutions of compound in MHB (50 μL of treatment/well) to lend a final total volume of 100 μL/well and a final inoculum density of ˜5×10^5 CFU/ml. The completed assay plate was sealed with Parafilm, placed in a lidded plastic tray lined with moistened paper towels, and incubated at 37° C. for approximately 20 hours. The MIC was read as the lowest treatment concentration where no bacterial growth occurred, as determined by OD600 measurements on a microplate reader. If a different plate or media type was used for a particular test, this is noted below the respective table.

E. coli ATCC 25922 [2] = assay: MIC by broth microdilution, E. coli ATCC 25922; type: cell-based; settings: E. coli (ATCC 25922); for MIC, Antibiotic +NH2-triguan-6C / MIC, Antibiotic +NO2-triamine-2C / MIC, Antibiotic +NO2-triamine-6C: non-covalent mixture
Protocol: as §1

S. aureus ATCC 29213 [3] = settings: cited from earlier work
E. coli ATCC 25922 [4] = settings: cited from earlier work
[5] = Mueller Hinton Broth, polypropylene plate
[6] = cation-adjusted MHB2 supplemented
[7] = cation-adjusted MHB2 supplemented with 50 g/L Ca2+

| Compound | MIC, Antibiotic +NH2-triguan-6C (S. aureus ATCC 29213 [1]; [5]) [µM] | MIC, Antibiotic +NO2-triamine-2C (S. aureus ATCC 29213 [1]; [5]) [µM] | MIC, Antibiotic +NO2-triamine-6C (S. aureus ATCC 29213 [1]; [5]) [µM] | MIC (S. aureus ATCC 29213 [1]; [5]) [µM] | MIC, Antibiotic Alone (E. coli ATCC 25922 [2]) [µM] | MIC, Antibiotic +NH2-triguan-6C (E. coli ATCC 25922 [2]) [µM] | MIC, Antibiotic +NO2-triamine-2C (E. coli ATCC 25922 [2]) [µM] | MIC, Antibiotic +NO2-triamine-6C (E. coli ATCC 25922 [2]) [µM] | MIC, Antibiotic +NH2-triguan-6C (S. aureus ATCC 29213 [1]; [6]) [µM] | MIC, Antibiotic +NO2-triamine-2C (S. aureus ATCC 29213 [1]; [7]) [µM] | MIC, Antibiotic +NO2-triamine-6C (S. aureus ATCC 29213 [1]; [7]) [µM] | MIC (S. aureus ATCC 29213 [1]; [6]) [µM] | Literature MIC (S. aureus ATCC 29213 [3]) [µM] | Literature MIC (E. coli ATCC 25922 [4]) [µM] |
| --- | --- | --- | --- | --- | --- | --- | --- | --- | --- | --- | --- | --- | --- | --- |
| CC1(C)S[C@@H]2[C@H](NC(=O)[C@H](N)c3ccccc3)C(=O)N2[C@H]1C(=O)O [Ampicillin] | 4 (≈ 1.4 µg/mL) | 4 (≈ 1.4 µg/mL) | 4 (≈ 1.4 µg/mL) | 2 (≈ 0.699 µg/mL) | 16 (≈ 5.59 µg/mL) | 16 (≈ 5.59 µg/mL) | 16 (≈ 5.59 µg/mL) | 16 (≈ 5.59 µg/mL) |  |  |  |  | 1.4 | 5 to 22 |
| CC[C@H]1OC(=O)[C@H](C)[C@@H](O[C@H]2C[C@@](C)(OC)[C@@H](O)[C@H](C)O2)[C@H](C)[C@@H](O[C@@H]2O[C@H](C)C[C@H](N(C)C)[C@H]2O)[C@](C)(O)C[C@@H](C)CN(C)[C@H](C)[C@@H](O)[C@]1(C)O [Azithromycin] | 2 (≈ 1.5 µg/mL) | 2 (≈ 1.5 µg/mL) | 2 (≈ 1.5 µg/mL) | 2 (≈ 1.5 µg/mL) |  |  |  |  |  |  |  |  | 0.64 to 2.5 |  |
| O=C(N[C@H](CO)[C@H](O)c1ccc([N+](=O)[O-])cc1)C(Cl)Cl [Chloramphenicol] | 32 (≈ 10.3 µg/mL) | 32 (≈ 10.3 µg/mL) | 32 (≈ 10.3 µg/mL) | 32 (≈ 10.3 µg/mL) | 16 (≈ 5.17 µg/mL) | 16 (≈ 5.17 µg/mL) | 16 (≈ 5.17 µg/mL) | 16 (≈ 5.17 µg/mL) |  |  |  |  | 6 to 50 | 6 to 25 |
| O=C(O)c1cn(C2CC2)c2cc(N3CCNCC3)c(F)cc2c1=O [Ciprofloxacin] |  |  |  |  |  |  |  |  |  |  |  |  | 0.4 to 1.5 |  |

More lines, main results first:

| MIC, Antibiotic +NH2-triguan-6C (S. aureus ATCC 29213 [1]; [5]) [µM] | MIC, Antibiotic +NO2-triamine-2C (S. aureus ATCC 29213 [1]; [5]) [µM] | MIC, Antibiotic +NO2-triamine-6C (S. aureus ATCC 29213 [1]; [5]) [µM] | MIC (S. aureus ATCC 29213 [1]; [5]) [µM] | MIC, Antibiotic Alone (E. coli ATCC 25922 [2]) [µM] | MIC, Antibiotic +NH2-triguan-6C (E. coli ATCC 25922 [2]) [µM] | MIC, Antibiotic +NO2-triamine-2C (E. coli ATCC 25922 [2]) [µM] | MIC, Antibiotic +NO2-triamine-6C (E. coli ATCC 25922 [2]) [µM] | MIC, Antibiotic +NH2-triguan-6C (S. aureus ATCC 29213 [1]; [6]) [µM] | MIC, Antibiotic +NO2-triamine-2C (S. aureus ATCC 29213 [1]; [7]) [µM] | MIC, Antibiotic +NO2-triamine-6C (S. aureus ATCC 29213 [1]; [7]) [µM] | MIC (S. aureus ATCC 29213 [1]; [6]) [µM] | Compound | Literature MIC (S. aureus ATCC 29213 [3]) [µM] | Literature MIC (E. coli ATCC 25922 [4]) [µM] |
| --- | --- | --- | --- | --- | --- | --- | --- | --- | --- | --- | --- | --- | --- | --- |
|  |  |  |  |  |  |  |  | 0.5 (≈ 0.81 µg/mL) | 0.5 (≈ 0.81 µg/mL) | 0.5 (≈ 0.81 µg/mL) | 0.5 (≈ 0.81 µg/mL) | CCCCCCCCCC(=O)N[C@@H](Cc1c[nH]c2ccccc12)C(=O)N[C@H](CC(N)=O)C(=O)N[C@@H](CC(=O)O)C(=O)N[C@@H]1C(=O)NCC(=O)N[C@@H](CCCN)C(=O)N[C@@H](CC(=O)O)C(=O)N[C@H](C)C(=O)N[C@@H](CC(=O)O)C(=O)NCC(=O)N[C@H](CO)C(=O)N[C@@H]([C@H](C)CC(=O)O)C(=O)N[C@@H](CC(=O)c2ccccc2N)C(=O)O[C@@H]1C [Daptomycin] | 0.077 to 0.62 |  |
| 0.125 (≈ 0.0479 µg/mL) | 0.125 (≈ 0.0479 µg/mL) | 0.125 (≈ 0.0479 µg/mL) | 0.125 (≈ 0.0479 µg/mL) |  |  |  |  |  |  |  |  | C[C@@H](O)[C@H]1C(=O)N2C(C(=O)O)=C(S[C@@H]3CN[C@H](C(=O)N(C)C)C3)[C@H](C)[C@H]12 [Meropenem] | 0.08 to 0.65 |  |
